In brackets after ≈: the same amount, converted by molar mass. Entries after “also recorded” stand apart in the source; their conditions may differ. One block for each molecule: values may come before it.
Columns and labels:
Type in all cases: physicochemical
[1] = Approximate solubility of Compound I, Type 1 at RT in twenty solvents (stepwise solvent addition); settings: for solubility: thermodynamic from solid, read-out: Approximate Solubility (mg/mL) at RT
Protocol: The solubility of Compound I, Type 1 (6036531-01-A) was estimated at RT in twenty different solvents. Approximately 2 mg solids were added into a 3-mL glass vial. Solvents in Table 39 were then added stepwise (50 μL per step) into the vials until the solids were dissolved or a total volume of 2 mL was reached.

[2] = DVS (water sorption, hygroscopicity, form change post-DVS); settings: for form change post-DVS (XRPD): after DVS (desorption and resorption); for hygroscopicity (from DVS): based on water sorption at 80% RH
[3] = Competitive slurry studies, solid form checked by XRPD (thermodynamic stability of forms)
Protocol: Competitive slurry studies with Type 1 and the material produced from manufacture (Type 1 and 8 mixture) were performed at 25 and 50° C. in THF, EtOH and EtOAc. The solid form was checked by XRPD on day 3 and day 7.

[4] = Approximate solubility test of Compound I at room temperature / 50° C. in different solvents; settings: thermodynamic from solid
Protocol: The specific steps are as follows: Charge about 5 mg of Compound I into a clean glass vial, […] visible particles (add up to 1.5 mL of solvent), record the amount of solvent at last for the calculation of solubility.

- Characterization (of approximate solubility) ([1]; 1-Butanol): Moderate
- Characterization (of approximate solubility) ([1]; 2-MeTHF): Moderate
- Characterization (of approximate solubility) ([1]; Acetone): Moderate
- Characterization (of approximate solubility) ([1]; Acetonitrile): Poor
- Characterization (of approximate solubility) ([1]; CPME): Poor
- Characterization (of approximate solubility) ([1]; DCM): Poor
- Characterization (of approximate solubility) ([1]; DMF): High
- Characterization (of approximate solubility) ([1]; DMSO): High
- Characterization (of approximate solubility) ([1]; EtOH): High
- Characterization (of approximate solubility) ([1]; H2O): Poor
- Characterization (of approximate solubility) ([1]; IPA): Moderate
- Characterization (of approximate solubility) ([1]; IPAc): Poor
- Characterization (of approximate solubility) ([1]; MEK): Moderate
- Characterization (of approximate solubility) ([1]; MIBK): Poor
- Characterization (of approximate solubility) ([1]; MTBE): Poor
- Characterization (of approximate solubility) ([1]; MeOH): High
- Characterization (of approximate solubility) ([1]; THF): High
- Characterization (of approximate solubility) ([1]; Toluene): Poor
- Characterization (of approximate solubility) ([1]; n-Heptane): Poor
- Characterization (of approximate solubility) ([1]; n-Propanol): Moderate
- solubility ([1]; organic solvent or mixture, 1-Butanol): 2.4 to 8 mg/mL (≈ 4.4 to 14.7 mM)
- solubility ([1]; organic solvent or mixture, 2-MeTHF): 2.2 to 7.3 mg/mL (≈ 4.03 to 13.4 mM)
- solubility ([1]; organic solvent or mixture, Acetone): 2.3 to 7.7 mg/mL (≈ 4.21 to 14.1 mM)
- solubility ([1]; organic solvent or mixture, Acetonitrile): < 2 mg/mL
- solubility ([1]; organic solvent or mixture, CPME): < 2.2 mg/mL
- solubility ([1]; organic solvent or mixture, DCM): < 2.4 mg/mL
- solubility ([1]; organic solvent or mixture, DMF): > 48 mg/mL
- solubility ([1]; organic solvent or mixture, DMSO): > 48 mg/mL
- solubility ([1]; organic solvent or mixture, EtOH): 20 to 40 mg/mL (≈ 36.6 to 73.3 mM)
- solubility ([1]; organic solvent or mixture, IPA): 2.2 to 7.3 mg/mL (≈ 4.03 to 13.4 mM)
- solubility ([1]; organic solvent or mixture, IPAc): < 2.1 mg/mL
- solubility ([1]; organic solvent or mixture, MEK): 2.2 to 7.3 mg/mL (≈ 4.03 to 13.4 mM)
- solubility ([1]; organic solvent or mixture, MIBK): < 2.2 mg/mL
- solubility ([1]; organic solvent or mixture, MTBE): < 2 mg/mL
- solubility ([1]; organic solvent or mixture, MeOH): > 42 mg/mL
- solubility ([1]; organic solvent or mixture, THF): 21 to 42 mg/mL (≈ 38.5 to 76.9 mM)
- solubility ([1]; organic solvent or mixture, Toluene): < 2.5 mg/mL
- solubility ([1]; organic solvent or mixture, n-Heptane): < 2.3 mg/mL
- solubility ([1]; organic solvent or mixture, n-Propanol): 2.2 to 7.3 mg/mL (≈ 4.03 to 13.4 mM)
- solubility ([1]; water, H2O): < 2.5 mg/mL
- water content at 80% RH by DVS ([2]; 80% RH): 0.67%
- form change post-DVS (XRPD) [2]: no form change
- hygroscopicity (from DVS) [2]: slightly hygroscopic
SMILES: Cn1cnc([C@@H]2C[C@@H]3C[C@@](O)(c4cc(OCC(C)(C)O)nn4C)C[C@@H]3C2)c1C(=O)Nc1ccc(F)c(Cl)c1 [Type 1, N-(3-chloro-4-fluorophenyl)-4-((2s,3aR,5r,6aS)-5-hydroxy-5-(3-(2-hydroxy-2-methylpropoxy)-1-methyl-1H-pyrazol-5-yl)octahydropentalen-2-yl)-1-methyl-1H-imidazole-5-carboxamide]

- water update at 80% RH (DVS) ([2]; 80% RH): 0.1%
- form change post-DVS (XRPD) [2]: No change in crystalline form
- hygroscopicity (from DVS) [2]: non-hygroscopic
- relative thermodynamic stability of the form ([3]; at 25 and 50° C., versus Type 1): the more thermodynamically stable form
SMILES: Cn1cnc([C@@H]2C[C@@H]3C[C@@](O)(c4cc(OCC(C)(C)O)nn4C)C[C@@H]3C2)c1C(=O)Nc1ccc(F)c(Cl)c1 [Type 8, N-(3-chloro-4-fluorophenyl)-4-((2s,3aR,5r,6aS)-5-hydroxy-5-(3-(2-hydroxy-2-methylpropoxy)-1-methyl-1H-pyrazol-5-yl)octahydropentalen-2-yl)-1-methyl-1H-imidazole-5-carboxamide]
- thermodynamic stability among all forms discovered [3]: the most thermodynamically stable form discovered to date

- RH range in which the form is stable (DVS) [2]: 30-95 % RH
- water content at 80% RH by DVS ([2]; 80% RH): 9.2%
SMILES: Cn1cnc([C@@H]2C[C@@H]3C[C@@](O)(c4cc(OCC(C)(C)O)nn4C)C[C@@H]3C2)c1C(=O)Nc1ccc(F)c(Cl)c1 [Type 2, N-(3-chloro-4-fluorophenyl)-4-((2s,3aR,5r,6aS)-5-hydroxy-5-(3-(2-hydroxy-2-methylpropoxy)-1-methyl-1H-pyrazol-5-yl)octahydropentalen-2-yl)-1-methyl-1H-imidazole-5-carboxamide]
- form change post-DVS (XRPD) [2]: Form change was observed post-DVS to a lower order hydrate; also recorded: converted to Type 3

- solubility ([4]; organic solvent or mixture, ACN, 20-25° C., read-out: Solubility (mg/mL) 20-25° C.): < 3.3 mg/mL
- solubility ([4]; organic solvent or mixture, ACN, 50° C., read-out: Solubility (mg/mL) 50° C.): < 3.3 mg/mL
- solubility ([4]; organic solvent or mixture, Acetone, 20-25° C., read-out: Solubility (mg/mL) 20-25° C.): < 3.3 mg/mL
- solubility ([4]; organic solvent or mixture, Acetone, 50° C., read-out: Solubility (mg/mL) 50° C.): 3.8 to 4 mg/mL (≈ 6.96 to 7.33 mM)
- solubility ([4]; organic solvent or mixture, Acetone/H2O = 95/5(V/V), 20-25° C., read-out: Solubility (mg/mL) 20-25° C.): 5 to 5.1 mg/mL (≈ 9.16 to 9.34 mM)
- solubility ([4]; organic solvent or mixture, Acetone/H2O = 95/5(V/V), 50° C., read-out: Solubility (mg/mL) 50° C.): 6.5 to 6.7 mg/mL (≈ 11.9 to 12.3 mM)
- solubility ([4]; organic solvent or mixture, DCM, 20-25° C., read-out: Solubility (mg/mL) 20-25° C.): < 3.3 mg/mL
- solubility ([4]; organic solvent or mixture, DCM, 50° C., read-out: Solubility (mg/mL) 50° C.): < 3.3 mg/mL
- solubility ([4]; organic solvent or mixture, DMSO, 20-25° C., read-out: Solubility (mg/mL) 20-25° C.): 167 to 200 mg/mL (≈ 306 to 366 mM)
- solubility ([4]; organic solvent or mixture, DMSO, 50° C., read-out: Solubility (mg/mL) 50° C.): 250 to 333 mg/mL (≈ 458 to 610 mM)
- solubility ([4]; organic solvent or mixture, EA, 20-25° C., read-out: Solubility (mg/mL) 20-25° C.): < 3.3 mg/mL
- solubility ([4]; organic solvent or mixture, EA, 50° C., read-out: Solubility (mg/mL) 50° C.): < 3.3 mg/mL
- solubility ([4]; organic solvent or mixture, EtOH, 20-25° C., read-out: Solubility (mg/mL) 20-25° C.): 8 to 8.3 mg/mL (≈ 14.7 to 15.2 mM)
- solubility ([4]; organic solvent or mixture, EtOH, 50° C., read-out: Solubility (mg/mL) 50° C.): 20 to 20.4 mg/mL (≈ 36.6 to 37.4 mM)
- solubility ([4]; organic solvent or mixture, EtOH/H2O = 95/5(V/V), 20-25° C., read-out: Solubility (mg/mL) 20-25° C.): 22.2 to 23.2 mg/mL (≈ 40.7 to 42.5 mM)
- solubility ([4]; organic solvent or mixture, EtOH/H2O = 95/5(V/V), 50° C., read-out: Solubility (mg/mL) 50° C.): 45.4 to 47.6 mg/mL (≈ 83.1 to 87.2 mM)
- solubility ([4]; organic solvent or mixture, Heptane, 20-25° C., read-out: Solubility (mg/mL) 20-25° C.): < 3.3 mg/mL
- solubility ([4]; organic solvent or mixture, Heptane, 50° C., read-out: Solubility (mg/mL) 50° C.): < 3.3 mg/mL
- solubility ([4]; organic solvent or mixture, IPA, 20-25° C., read-out: Solubility (mg/mL) 20-25° C.): < 3.3 mg/mL
- solubility ([4]; organic solvent or mixture, IPA, 50° C., read-out: Solubility (mg/mL) 50° C.): 5 to 5.1 mg/mL (≈ 9.16 to 9.34 mM)
- solubility ([4]; organic solvent or mixture, IPA/H2O = 95/5(V/V), 20-25° C., read-out: Solubility (mg/mL) 20-25° C.): < 3.3 mg/mL
- solubility ([4]; organic solvent or mixture, IPA/H2O = 95/5(V/V), 50° C., read-out: Solubility (mg/mL) 50° C.): 8 to 8.1 mg/mL (≈ 14.7 to 14.8 mM)
- solubility ([4]; organic solvent or mixture, IPAc, 20-25° C., read-out: Solubility (mg/mL) 20-25° C.): < 3.3 mg/mL
- solubility ([4]; organic solvent or mixture, IPAc, 50° C., read-out: Solubility (mg/mL) 50° C.): < 3.3 mg/mL
- solubility ([4]; organic solvent or mixture, MTBE, 20-25° C., read-out: Solubility (mg/mL) 20-25° C.): < 3.3 mg/mL
- solubility ([4]; organic solvent or mixture, MTBE, 50° C., read-out: Solubility (mg/mL) 50° C.): < 3.3 mg/mL
- solubility ([4]; organic solvent or mixture, MeOH, 20-25° C., read-out: Solubility (mg/mL) 20-25° C.): 32.2 to 33.3 mg/mL (≈ 59 to 61 mM)
- solubility ([4]; organic solvent or mixture, MeOH, 50° C., read-out: Solubility (mg/mL) 50° C.): 74.1 to 76.9 mg/mL (≈ 136 to 141 mM)
- solubility ([4]; organic solvent or mixture, THF, 20-25° C., read-out: Solubility (mg/mL) 20-25° C.): 12.5 to 12.6 mg/mL (≈ 22.9 to 23.1 mM)
- solubility ([4]; organic solvent or mixture, THF, 50° C., read-out: Solubility (mg/mL) 50° C.): 18.1 to 18.5 mg/mL (≈ 33.1 to 33.9 mM)
- solubility ([4]; organic solvent or mixture, Toluene, 20-25° C., read-out: Solubility (mg/mL) 20-25° C.): < 3.3 mg/mL
- solubility ([4]; organic solvent or mixture, Toluene, 50° C., read-out: Solubility (mg/mL) 50° C.): < 3.3 mg/mL
- solubility ([4]; water, H2O, 20-25° C., read-out: Solubility (mg/mL) 20-25° C.): < 3.3 mg/mL
- solubility ([4]; water, H2O, 50° C., read-out: Solubility (mg/mL) 50° C.): < 3.3 mg/mL
SMILES: Cn1cnc(C2CC3CC(O)(c4cc(OCC(C)(C)O)nn4C)CC3C2)c1C(=O)Nc1ccc(F)c(Cl)c1 (stereo not shown) [Compound I, N-(3-Chloro-4-fluorophenyl)-4-(5-hydroxy-5-(3-(2-hydroxy-2-methylpropoxy)-1-methyl-1H-pyrazol-5-yl)octahydropentalen-2-yl)-1-methyl-1H-imidazole-5-carboxamide]

Source: patent US20250250257A1, “NOVEL CRYSTALLINE FORMS” (Assembly Biosciences, Inc., priority 2021, published 2025)
